The target in the assay is T1, GlyT2 (wtGlyT2) (Rattus norvegicus, UniProt P58295).
T1 sequence (P58295 1-799): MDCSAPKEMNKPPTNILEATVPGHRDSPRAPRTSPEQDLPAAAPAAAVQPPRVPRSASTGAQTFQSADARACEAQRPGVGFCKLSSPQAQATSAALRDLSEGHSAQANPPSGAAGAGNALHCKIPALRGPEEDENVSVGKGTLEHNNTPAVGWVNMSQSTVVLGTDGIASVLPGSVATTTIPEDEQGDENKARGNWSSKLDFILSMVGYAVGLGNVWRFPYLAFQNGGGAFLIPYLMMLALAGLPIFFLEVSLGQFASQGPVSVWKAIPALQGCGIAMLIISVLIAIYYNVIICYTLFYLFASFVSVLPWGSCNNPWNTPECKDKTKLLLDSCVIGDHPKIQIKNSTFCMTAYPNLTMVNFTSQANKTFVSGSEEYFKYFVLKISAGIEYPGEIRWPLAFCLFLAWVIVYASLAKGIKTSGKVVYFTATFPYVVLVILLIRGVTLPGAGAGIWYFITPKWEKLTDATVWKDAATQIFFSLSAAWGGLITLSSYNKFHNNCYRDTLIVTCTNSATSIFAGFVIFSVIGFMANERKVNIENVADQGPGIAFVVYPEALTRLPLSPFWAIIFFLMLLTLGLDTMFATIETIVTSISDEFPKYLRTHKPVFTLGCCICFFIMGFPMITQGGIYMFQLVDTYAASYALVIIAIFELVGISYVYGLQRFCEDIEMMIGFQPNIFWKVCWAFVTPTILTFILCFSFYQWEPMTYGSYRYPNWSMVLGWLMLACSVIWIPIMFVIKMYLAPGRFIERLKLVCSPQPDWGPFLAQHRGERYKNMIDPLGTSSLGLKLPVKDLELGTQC
The experiment in a line: [3H]glycine uptake inhibition in transfected COS7 cells. In kind it is cell-based.

On to `CCCCC/C=C\C/C=C\C/C=C\C/C=C\CCCC(=O)NCC(=O)O` [N-arachidonoyl glycine], for which the IC50 was determined as 67 ± 23 µM.

The values above are taken from article doi:10.1101/2021.03.24.436638v1 (biorxiv, 2021).
